According to patent US5064856A, “Novel HMG-CoA synthase inhibitors” (Merck & Co., Inc., priority 1989, dated 1991):

Target: T1, HMG-CoA synthase (Rattus norvegicus, UniProt P17425)
T1 construct: The livers from male Charles River CD rats (225-350 g) were homogenized in 0.25M sucrose; from tissue; host or cells: liver of male Charles River CD rats
T1 sequence (P17425 1-520): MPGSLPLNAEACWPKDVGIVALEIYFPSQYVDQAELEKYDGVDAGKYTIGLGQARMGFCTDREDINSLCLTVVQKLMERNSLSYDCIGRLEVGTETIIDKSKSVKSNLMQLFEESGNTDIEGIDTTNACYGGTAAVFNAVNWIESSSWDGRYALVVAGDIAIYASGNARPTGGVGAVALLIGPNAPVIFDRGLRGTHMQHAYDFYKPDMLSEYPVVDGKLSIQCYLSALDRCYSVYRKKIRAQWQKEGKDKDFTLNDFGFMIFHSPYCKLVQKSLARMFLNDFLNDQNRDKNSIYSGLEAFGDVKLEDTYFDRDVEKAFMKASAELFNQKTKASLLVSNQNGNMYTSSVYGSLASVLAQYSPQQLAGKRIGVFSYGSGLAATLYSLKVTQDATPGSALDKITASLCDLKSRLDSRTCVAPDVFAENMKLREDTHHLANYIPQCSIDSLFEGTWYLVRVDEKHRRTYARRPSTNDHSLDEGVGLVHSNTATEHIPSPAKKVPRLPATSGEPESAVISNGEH
Experiment: HMG-CoA synthase inhibition assay
Format: biochemical
Conditions: enzyme from rat liver; 5 min preincubation, 30°, pH 8.0; [14C]-acetyl-CoA
Description: The intrinsic HMG--CoA synthase inhibition activity of the compounds of this invention is measured by the standard in vitro protocol described below:
The livers from male Charles River CD rats (225-350 g) were homogenized in 0.25M sucrose which was adjusted with phenylmethylsulfonylfluoride (PMSF) and N-p-tosyl-1-lysine chloromethyl ketone (TLCK) so that the final concentration of each was 50 and 25 μg/ml, respectively. The homogenate was first centrifuged at 700×g for 10 minutes, the supernatant decanted and recentrifuged at 7,700×g for 20 minutes. This supernatant was filtered through a fine nylon screen to remove most of the fat layer and recentrifuged at 100,000×g for 1 hour. This supernatant was removed and 1M potassium phosphate, dithiothreitol (DTT) and ethylene glycolbis(β-aminoethyl ether)-N,N,N',N'-tetraacetic acid (EGTA) added to give a final concentration of 0.1M (pH 7.2), 0.5 mM and 0.1 mM, respectively. Solid ammonium sulfate was added to 50% saturation to the protein solution, it was centrifuged at 15,000×g and the supernatant discarded. This precipitated protein could be stored at -70° C. for at least one month with very little loss of activity. The ammonium sulfate precipitate was dissolved in an minimal amount of 0.06M potassium phosphate buffer (pH 7.2) containing 0.5 mM dithiothreitol and 0.1 mM EGTA (referred to as 0.06M phosphate buffer) and dialyzed overnight against 2 liters of the same buffer to remove the ammonium sulfate and to inactivate HMG--CoA lyase [Clinkenbeard, et al., J. Biol. Chem. 250, 3108-3116 (1975)].
The dialyzed extract was added to a column of DEAE-52 (Whatman) which had been equilibrated with 0.06M phosphate buffer (10 mg of protein to 1 ml bed volume of the resin). The DEAE-cellulose was eluted with 0.06M phosphate buffer until the optical density at 280 nm was essentially zero. This fraction contained the β-ketoacetyl-CoA thiolase activity. The HMG--CoA synthase was eluted from the column with 0.1M KCl in 0.06M phosphate buffer (pH 7.2) containing 0.5 mM DTT and 0.1 mM EGTA, and was virtually free of all thiolase activity. The protein was precipitated by the addition of ammonium sulfate to give 50% saturation. This solution was stirred for 10 minutes at 4° C. and the precipitate collected by centrifugation at 15,000 rpm for 10 minutes. The supernatant was discarded and the precipitate dissolved in a minimum of 0.06M phosphate buffer, pH 7.2 (about 10 ml) and the enzyme stored at -80° C.
HMG-- CoA Synthase Inhibition Assay
Enzyme protein (ca. 12.2 μg) was added to a solution containing 117 mM Tris-HCl (pH 8.0), 11.7 mM MgCl2, 1.17 mM Ethylenediaminetetraacetic acid (EDTA), 0.58 mM dithiothreitol, and the indicated concentrations of the test compound (added as a 2 μg/ml solution in dimethylsulfoxide). The incubation took place in a volume of 0.085 ml at 30° in a shaking water bath. After 5 minutes, 15 μl of a solution containing acetoacetyl-CoA and 0.1 μCi of 1-[^14 C]-acetyl-CoA was added to give a final concentrations of 0.1 and 0.4 mM, respectively. […] Radioactivity was determined in a Packard Tri-Carb liquid scintillation counter. Percent inhibition is calculated by the formula: [formula] IC50 values were determined by plotting the log of the concentration of the test compound verses the percentage inhibition and fitting a straight line to the resulting data by using the least squares method.

SMILES | IC50 [µM]
CC=CCCCCC=CC(=O)NC1CC2(OC1=O)C(=O)C1OC1C(O)C2O (centres unmarked) [Compound A-2, N-(4,5-dihydro-4',5'-dihydroxy-2',5-dioxospiro[furan-2(3H),3'-[7]oxabicyclo[4.1.0]-hept]-4-yl)-2,8-decadienamide] | 2.5
CC=CCCCCC=CC(=O)NC(CC1(O)C(=O)C2OC2C2OC21)C(=O)OC (stereo not drawn) [Compound B, 3,8-Dioxatricyclo(5.1.0.0^2,^4)octane-5-propanoic acid, 5-hydroxy-6-oxo-α-((1-oxo-2,8-decadienyl)amino)-, methyl ester] | 0.18
CC=CCCCCC=CC(=O)NC1CC2(OC1=O)C(O)C1OC1C1OC12 (centres unmarked) [Compound A] | 6.9
CC=CCCCCC=CC(=O)NC1CC2(OC1=O)C(=O)C1OC1C1OC12 (centres unmarked) [Compound C] | 0.36
CC=CCCCCC=CC(=O)NC1CC2(OC1=O)C(O)C1OC1C1OC12 (centres unmarked) [Compound A-1] | > 10
